# Test results from US8378107B2, “Heteroaryl antagonists of prostaglandin D2 receptors” (Panmira Pharmaceuticals, LLC, priority 2008, dated 2013).
# Molecular target: T1, human DP2 receptor (Homo sapiens, UniProt Q9Y5Y4)
# T1 construct: expressed in transfected cells; membrane preparation
# T1 sequence (Q9Y5Y4 1-395): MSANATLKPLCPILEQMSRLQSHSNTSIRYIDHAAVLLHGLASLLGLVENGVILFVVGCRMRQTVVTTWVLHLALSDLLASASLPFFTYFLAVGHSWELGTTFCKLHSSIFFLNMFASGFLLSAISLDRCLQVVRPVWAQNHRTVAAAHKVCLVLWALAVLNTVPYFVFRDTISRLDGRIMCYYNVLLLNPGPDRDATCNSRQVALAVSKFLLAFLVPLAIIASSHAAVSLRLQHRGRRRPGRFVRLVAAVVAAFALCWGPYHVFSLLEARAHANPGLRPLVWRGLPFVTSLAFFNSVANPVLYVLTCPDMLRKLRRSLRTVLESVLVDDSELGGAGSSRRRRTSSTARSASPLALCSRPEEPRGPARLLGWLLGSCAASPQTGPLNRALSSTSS
# Assay: DP2/CRTH2 radioligand binding assay using [3H]PGD2
# Conditions: membranes of HEK293 cells expressing recombinant human DP2, 1 nM [3H]PGD2; read-out: hDP2
# Description: The ability of a compound to bind to the human DP2 receptor is assessed via a radioligand binding assay using [^3H]PGD2. HEK293 cells stably expressing recombinant human DP2 are resuspended in 10 mM Hepes, 7.4 containing 1 mM DTT, lysed and centrifuged at 75,000×g to pellet the membranes. The membranes are resuspended in 10 mM Hepes, 7.4 containing 1 mM DTT and 10% glycerol to approximately 5 mg protein/ml. Membranes (2-10 μg protein/well) are incubated in 96-well plates with 1 nM [^3H]PGD2 and test compound in Assay Buffer (50 mM Hepes, 10 mM MnCl2, 1 mM EDTA, plus or minus 0.2% human serum albumin, pH 7.4) for 60 minutes at room temperature. The reactions are terminated by rapid filtration through Whatman GF/C glass fibre filter plates. The filter plates were pre-soaked in 0.33% polyethylenimine for 30 minutes at room temperature then washed in Wash Buffer (50 mM Hepes, 0.5 M NaCl pH 7.4) prior to harvesting. After harvesting, the filter plates are washed 3 times with 1 ml cold Wash Buffer then dried. Scintillant is then added to the plates and the radioactivity retained on the filters is determined on a Packard TopCount (Perkin Elmer). Specific binding is determined as total radioactive binding minus non-specific binding in the presence of 10 μM PGD2. IC50s were determined using GraphPad prism analysis of drug titration curves.
row,SMILES,IC50
1,"COc1ccc(CC(=O)O)cc1-c1ncccc1CNC(=O)OCc1ccccc1 [Compound 1-1, {3-[3-(Benzyloxycarbonylamino-methyl)-pyridin-2-yl]-4-methoxy-phenyl}-acetic acid]",> 1000 nM
2,"CCN(Cc1cc(C)cnc1-c1cc(CC(=O)O)ccc1OC)C(=O)C1CC1 [Compound 1-2, (3-{3-[(Cyclopropanecarbonyl-ethyl-amino)-methyl]-5-methyl-pyridin-2-yl}-4-methoxy-phenyl)-acetic acid]",300 to 1000 nM
3,"CCN(Cc1cc(C)cnc1-c1cc(CC(=O)O)ccc1OC)C(=O)CCc1ccccc1 [Compound 1-3, [3-(3-{[Ethyl-(3-phenyl-propionyl)-amino]-methyl}-5-methyl-pyridin-2-yl)-4-methoxy-phenyl]-acetic acid]",< 300 nM
4,"CCN(Cc1cc(C)cnc1-c1cc(CC(=O)O)ccc1OC)C(=O)NCc1ccccc1 [Compound 1-4, {3-[3-(3-Benzyl-1-ethyl-ureidomethyl)-5-methyl-pyridin-2-yl]-4-methoxy-phenyl}-acetic acid]",< 300 nM
5,"CCN(Cc1cc2ccccc2nc1-c1cc(CC(=O)O)ccc1OC)C(=O)C1CC1 [Compound 2-1, (3-{3-[(Cyclopropanecarbonyl-ethyl-amino)-methyl]-quinolin-2-yl}-4-methoxy-phenyl)-acetic acid]",300 to 1000 nM
6,"CCN(Cc1cc2ccccc2nc1-c1cc(CC(=O)O)ccc1OC)C(C)=O [Compound 2-2, (3-{3-[(Acetyl-ethyl-amino)-methyl]-quinolin-2-yl}-4-methoxy-phenyl)-acetic acid]",> 1000 nM
7,"CCN(Cc1cc2ccccc2nc1-c1cc(CC(=O)O)ccc1OC)C(=O)COC [Compound 2-3, [3-(3-{[Ethyl-(2-methoxy-acetyl)-amino]-methyl}-quinolin-2-yl)-4-methoxy-phenyl]-acetic acid]",> 1000 nM
8,"CCN(Cc1nc2ccccc2cc1-c1cc(CC(=O)O)ccc1OC)C(=O)C1CC1 [Compound 2-4, (3-{2-[(Cyclopropanecarbonyl-ethyl-amino)-methyl]-quinolin-3-yl}-4-methoxy-phenyl)-acetic acid]",< 300 nM
9,"CCC(=O)N(CC)Cc1nc2ccccc2cc1-c1cc(CC(=O)O)ccc1OC [Compound 2-5, (3-{2-[(Ethyl-propionyl-amino)-methyl]-quinolin-3-yl}-4-methoxy-phenyl)-acetic acid]",< 300 nM
10,"CCN(Cc1nc2ccccc2cc1-c1cc(CC(=O)O)ccc1OC)C(=O)COC [Compound 2-6, [3-(2-{[Ethyl-(2-methoxy-acetyl)-amino]-methyl}-quinolin-3-yl)-4-methoxy-phenyl]-acetic acid]",< 300 nM
11,"COc1ccc(CC(=O)O)cc1-c1cc2ccccc2nc1CN(Cc1ccccc1)C(C)=O [Compound 2-7, (3-{2-[(Acetyl-benzyl-amino)-methyl]-quinolin-3-yl}-4-methoxy-phenyl)-acetic acid]",< 300 nM
12,"COc1ccc(CC(=O)O)cc1-c1cc2ccccc2nc1CN(Cc1ccccc1)C(=O)C1CC1 [Compound 2-8, (3-{2-[(Benzyl-cyclopropanecarbonyl-amino)-methyl]-quinolin-3-yl}-4-methoxy-phenyl)-acetic acid]",< 300 nM
13,"O=C(O)CCn1c2c(c3ccccc31)C[C@H](NS(=O)(=O)c1ccc(F)cc1)CC2 [Ramatroban, reference compound]",300 to 1000 nM
